# Laboratory results from paper PMC8001115 (Drug Design, Development and Therapy, 2021).
# “And” between values parts separate entries of the source, which are not always exact repeats. Identical values can stand only once.
# Legend:
# Dopaminergic Receptor = assay: Involvement of dopaminergic receptors; format: in vivo, mice
# Balb C mice [1] = assay: Tail immersion; format: in vivo
# Balb C mice [2] = assay: Formalin-induced paw-licking test
# [3] = test system: Alpha-2 Adrenergic Receptor; assay: Involvement of adrenergic receptors; format: in vivo, mice
# COX-2 = target: T1, COX-2 (Homo sapiens, UniProt P35354); assay: Cyclooxygenase-2; format: biochemical; settings: for IC50: IC50 COX-2, ±SEM, triplicate
# T1 sequence (P35354 18-604): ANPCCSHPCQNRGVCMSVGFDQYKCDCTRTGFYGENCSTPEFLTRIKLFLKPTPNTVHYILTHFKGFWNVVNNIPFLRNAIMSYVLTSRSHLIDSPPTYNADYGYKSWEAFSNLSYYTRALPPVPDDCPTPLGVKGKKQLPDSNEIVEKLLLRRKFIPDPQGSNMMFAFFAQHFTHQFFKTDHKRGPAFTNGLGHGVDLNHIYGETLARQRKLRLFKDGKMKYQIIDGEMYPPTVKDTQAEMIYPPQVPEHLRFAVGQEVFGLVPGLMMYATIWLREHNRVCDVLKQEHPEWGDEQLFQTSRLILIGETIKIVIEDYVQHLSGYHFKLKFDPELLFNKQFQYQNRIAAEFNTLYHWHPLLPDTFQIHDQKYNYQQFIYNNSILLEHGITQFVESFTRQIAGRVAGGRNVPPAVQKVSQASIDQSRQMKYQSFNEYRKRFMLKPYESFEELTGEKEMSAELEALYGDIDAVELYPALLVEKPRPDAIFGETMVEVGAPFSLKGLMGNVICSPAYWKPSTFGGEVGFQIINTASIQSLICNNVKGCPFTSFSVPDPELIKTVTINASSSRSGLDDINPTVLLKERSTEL
# COX-1 = COX-1 (Homo sapiens, UniProt P23219); assay: Cyclooxygenase-1; format: biochemical; settings: IC50 COX-1, ±SEM, triplicate
# Balb C mice [4] = assay: Acute toxicity study; format: in vivo; settings: I/P, highest tested dose 150 mg/kg, 24 hours
# Balb C mice [5] = assay: Acetic acid induced writhing test; format: in vivo; settings: 50 mg/kg
# [6] = haloperidol alone, 1 mg/kg i.p.
# [7] = 5 mg/kg, with naloxone (N, 2 mg/kg s.c.)
# [8] = 10 mg/kg, with naloxone (N, 2 mg/kg s.c.)
# [9] = 25 mg/kg after haloperidol (HL, 1 mg/kg)
# [10] = 50 mg/kg after haloperidol (HL, 1 mg/kg)
# [11] = 25 mg/kg, with naloxone (N, 2 mg/kg s.c.)
# [12] = 50 mg/kg, with naloxone (N, 2 mg/kg s.c.)
# [13] = 25 mg/kg after yohimbine (YH, 1 mg/kg)
# [14] = 50 mg/kg after yohimbine (YH, 1 mg/kg)
# COX-1, sequence (P23219 24-599): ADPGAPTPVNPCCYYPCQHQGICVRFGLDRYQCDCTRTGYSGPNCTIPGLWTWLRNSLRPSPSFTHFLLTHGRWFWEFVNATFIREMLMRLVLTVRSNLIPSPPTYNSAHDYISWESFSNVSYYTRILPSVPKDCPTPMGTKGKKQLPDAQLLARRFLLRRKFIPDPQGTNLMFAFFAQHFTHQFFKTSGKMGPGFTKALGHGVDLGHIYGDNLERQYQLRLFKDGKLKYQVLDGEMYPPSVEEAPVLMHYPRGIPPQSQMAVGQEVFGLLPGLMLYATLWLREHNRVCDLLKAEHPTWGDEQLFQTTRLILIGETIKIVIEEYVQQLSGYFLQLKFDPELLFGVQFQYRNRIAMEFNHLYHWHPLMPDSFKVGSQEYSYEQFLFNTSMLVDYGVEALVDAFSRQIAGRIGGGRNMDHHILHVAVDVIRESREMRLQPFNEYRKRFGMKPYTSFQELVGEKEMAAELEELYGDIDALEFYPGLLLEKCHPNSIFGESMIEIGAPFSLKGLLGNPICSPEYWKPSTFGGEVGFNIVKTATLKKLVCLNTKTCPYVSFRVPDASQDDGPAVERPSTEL
smiles,measurement,setting,value
"O=C(CCCN1CCC(O)(c2ccc(Cl)cc2)CC1)c1ccc(F)cc1 [Haloperidol, haloperidol, reference compound]",% Activity,Dopaminergic Receptor; [6],17.50±1.28%
same,Writhing,Dopaminergic Receptor; [6],55.78±2.02
"CN1CC[C@]23c4c5ccc(O)c4O[C@H]2[C@@H](O)C=C[C@H]3[C@H]1C5 [Morphine, morphine, reference compound]",Tail flick Response (%),"Balb C mice [1]; 5 mg/kg, 15 Minutes",48.1%
same,Tail flick Response (%),"Balb C mice [1]; 5 mg/kg, 30 Minutes",56.1%
same,Tail flick Response (%),"Balb C mice [1]; 5 mg/kg, 45 Minutes",75%
same,Tail flick Response (%),"Balb C mice [1]; 5 mg/kg, 60 Minutes",85%
same,Tail flick Response (%),"Balb C mice [1]; 5 mg/kg, 75 Minutes",80.2%
same,Tail flick Response (%),"Balb C mice [1]; 5 mg/kg, 75 Minutes, listed as morphine",80.2%
same,Tail flick Response (%),"Balb C mice [1]; 5 mg/kg, 90 Minutes",78.4%
same,Tail flick Response (%),"Balb C mice [1]; 5 mg/kg, 90 Minutes, listed as morphine",78.4%
same,Inhibition (%) 1st Phase,Balb C mice [2]; 5 mg/kg,87.16±3.32%
same,Inhibition (%) 2nd Phase,Balb C mice [2]; 5 mg/kg,96.34±0.66%
same,Licking Time 1st Phase,Balb C mice [2]; 5 mg/kg,6.50 ± 1.153 s
same,Licking Time 2nd Phase,Balb C mice [2]; 5 mg/kg,2.70 ± 1.340 s
same,Inhibition (%) 1st Phase,Balb C mice [2]; [7],2.68±1.20%
same,Inhibition (%) 2nd Phase,Balb C mice [2]; [7],1.44±0.28%
same,Licking Time 1st Phase,Balb C mice [2]; [7],49.29 ± 1.52 s
same,Licking Time 2nd Phase,Balb C mice [2]; [7],72.83 ± 1.152 s
"COc1ccc2c(c1)c(CC(=O)O)c(C)n2C(=O)c1ccc(Cl)cc1 [Indomethacin, indomethacin, reference compound]",Inhibition (%) 1st Phase,Balb C mice [2]; 10 mg/kg,23.69±3.24%
same,Inhibition (%) 2nd Phase,Balb C mice [2]; 10 mg/kg,74.34±2.86%
same,Licking Time 1st Phase,Balb C mice [2]; 10 mg/kg,38.65 ± 1.37 s
same,Licking Time 2nd Phase,Balb C mice [2]; 10 mg/kg,18.96 ± 1.342 s
same,Inhibition (%) 1st Phase,Balb C mice [2]; [8],11.64±1.20%
same,Licking Time 1st Phase,Balb C mice [2]; [8],44.75 ± 1.76 s
same,Licking Time 2nd Phase,Balb C mice [2]; [8],25.00 ± 1.249 s
"COC(=O)[C@@H]1[C@H]2C[C@H]3c4[nH]c5ccccc5c4CCN3C[C@@H]2CC[C@@H]1O [Yohimbine, yohimbine, reference compound]",% Activity,"[3]; yohimbine alone, 1 mg/kg i.p.",15.08±1.15%
same,Writhing,"[3]; yohimbine alone, 1 mg/kg i.p.",57.4±2.02
"CC(=O)CC(C[N+](=O)[O-])c1ccccc1 (stereo not shown) [Compound 9, 5-nitro-4-phenylpentan-2-one]",Selectivity Index (SI) (IC50 COX-1/IC50 COX-2),COX-2,0.91
same,IC50,COX-2,73.5 ± 1.38 µM
same,IC50,COX-1,67.6 ± 1.02 µM
"CCC[C@](C)(C=O)[C@@H]1CC(=O)N(c2ccccc2)C1=O [Compound 4, (S)-2-((S)-2,5-dioxo-1-phenylpyrrolidin-3-yl)-2-methylpentanal]",Tail flick Response (%),"Balb C mice [1]; 25 mg/kg i.p., 15 Minutes",11.1%
same,Tail flick Response (%),"Balb C mice [1]; 25 mg/kg i.p., 30 Minutes",14.8%
same,Tail flick Response (%),"Balb C mice [1]; 25 mg/kg i.p., 45 Minutes",16.3%
same,Tail flick Response (%),"Balb C mice [1]; 25 mg/kg i.p., 60 Minutes",18.9%
same,Tail flick Response (%),"Balb C mice [1]; 25 mg/kg i.p., 75 Minutes",29.5%
same,Tail flick Response (%),"Balb C mice [1]; 25 mg/kg i.p., 75 Minutes, listed as Comp 4",29.5%
same,Tail flick Response (%),"Balb C mice [1]; 25 mg/kg i.p., 90 Minutes",19.8%
same,Tail flick Response (%),"Balb C mice [1]; 50 mg/kg i.p., 15 Minutes",14.8%
same,Tail flick Response (%),"Balb C mice [1]; 50 mg/kg i.p., 30 Minutes",22.7%
same,Tail flick Response (%),"Balb C mice [1]; 50 mg/kg i.p., 45 Minutes",33.7%
same,Tail flick Response (%),"Balb C mice [1]; 50 mg/kg i.p., 60 Minutes",42.1%
same,Tail flick Response (%),"Balb C mice [1]; 50 mg/kg i.p., 75 Minutes",53.4%
same,Tail flick Response (%),"Balb C mice [1]; 50 mg/kg i.p., 75 Minutes, listed as Comp 4",53.4%
same,Tail flick Response (%),"Balb C mice [1]; 50 mg/kg i.p., 90 Minutes",46.2%
same,Tail flick Response (%),"Balb C mice [1]; 50 mg/kg i.p., 90 Minutes, listed as Comp 4",46.2%
same,Selectivity Index (SI) (IC50 COX-1/IC50 COX-2),COX-2,1.94
same,IC50,COX-2,65 µM and 65.9 µM
same,% Activity,Dopaminergic Receptor; [9],16.52±1.25%
same,Writhing,Dopaminergic Receptor; [9],56.42±1.05
same,% Activity,Dopaminergic Receptor; [10],16.70±1.16%
same,Writhing,Dopaminergic Receptor; [10],56.23±1.05
same,"Acute toxicity (adverse effect, change in body weight, mortality)",Balb C mice [4],safe
same,Inhibition (%) 1st Phase,Balb C mice [2]; 25 mg/kg,22.30±0.85%
same,Inhibition (%) 2nd Phase,Balb C mice [2]; 25 mg/kg,38.94±2.88%
same,Licking Time 1st Phase,Balb C mice [2]; 25 mg/kg,39.35 ± 1.231 s
same,Licking Time 2nd Phase,Balb C mice [2]; 25 mg/kg,45.12 ± 1.145 s
same,Inhibition (%) 1st Phase,Balb C mice [2]; [11],17.47±1.89%
same,Inhibition (%) 2nd Phase,Balb C mice [2]; [11],33.76±2.53%
same,Licking Time 1st Phase,Balb C mice [2]; [11],41.80 ± 1.33 s
same,Licking Time 2nd Phase,Balb C mice [2]; [11],48.95 ± 1.40 s
same,Inhibition (%) 1st Phase,Balb C mice [2]; 50 mg/kg,36.16±4.47%
same,Inhibition (%) 2nd Phase,Balb C mice [2]; 50 mg/kg,50.66±3.84%
same,Licking Time 1st Phase,Balb C mice [2]; 50 mg/kg,32.33 ± 1.356 s
same,Licking Time 2nd Phase,Balb C mice [2]; 50 mg/kg,36.45 ± 1.232 s
same,Inhibition (%) 1st Phase,Balb C mice [2]; [12],23.69±1.44%
same,Inhibition (%) 2nd Phase,Balb C mice [2]; [12],42.15±1.43%
same,Licking Time 1st Phase,Balb C mice [2]; [12],38.65 ± 1.25 s
same,Licking Time 2nd Phase,Balb C mice [2]; [12],42.75 ± 1.65 s
same,IC50,COX-1,128 µM
same,% Activity,[3]; [13],15.58±1.44%
same,Writhing,[3]; [13],57.09±2.20
same,% Activity,[3]; [14],16.08±1.08%
same,Writhing,[3]; [14],56.73±1.05
same,Inhibition of writhing,Balb C mice [5]; n=6,52.2%
O=C(O)Cc1ccccc1Nc1c(Cl)cccc1Cl [diclofenac sodium],Inhibition of writhing,Balb C mice [5]; n=6,85%
same,Inhibition of writhing,"Balb C mice [5]; n=6, listed as diclofenac",84.96%
